# ChEMBL document CHEMBL5038625, “Application of the dual-tail approach for the design and synthesis of novel Thiopyrimidine-Benzenesulfonamide hybrids as selective carbonic anhydrase inhibitors” (Eur J Med Chem, 2022)
# pIC50, pKi: −log10 of the molar value.
# Key:
# RPMI-8226 = assay: Antiproliferative activity against human RPMI-8226 cells assessed as cell growth inhibition at 10 uM incubated for 24 hrs by sulforhodamine B assay; format: functional; settings: read-out: GI
# ACHN = assay: Antiproliferative activity against human ACHN cells assessed as cell growth inhibition at 10 uM incubated for 24 hrs by sulforhodamine B assay; format: functional; settings: read-out: GI
# Malme-3M = assay: Antiproliferative activity against human Malme-3M cells assessed as cell growth inhibition at 10 uM incubated for 24 hrs by sulforhodamine B assay; format: functional; settings: read-out: GI
# MDA-MB-231 [1] = assay: Antiproliferative activity against human MDA-MB-231 cells assessed as cell growth inhibition at 10 uM incubated for 24 hrs by sulforhodamine B assay; format: functional; settings: read-out: GI
# K562 = assay: Antiproliferative activity against human K562 cells assessed as cell growth inhibition at 10 uM incubated for 24 hrs by sulforhodamine B assay; format: functional; settings: read-out: GI
# NCI-H23 = assay: Antiproliferative activity against human NCI-H23 cells assessed as cell growth inhibition at 10 uM incubated for 24 hrs by sulforhodamine B assay; format: functional; settings: read-out: GI
# MOLT-4 = assay: Antiproliferative activity against human MOLT-4 cells assessed as cell growth inhibition at 10 uM incubated for 24 hrs by sulforhodamine B assay; format: functional; settings: read-out: GI
# SK-MEL-5 = assay: Antiproliferative activity against human SK-MEL-5 cells assessed as cell growth inhibition at 10 uM incubated for 24 hrs by sulforhodamine B assay; format: functional; settings: read-out: GI
# NCI-H226 = assay: Antiproliferative activity against human NCI-H226 cells assessed as cell growth inhibition at 10 uM incubated for 24 hrs by sulforhodamine B assay; format: functional; settings: read-out: GI
# Carbonic anhydrase 9 = Carbonic anhydrase 9 (Homo sapiens, UniProt Q16790); assay: Inhibition of human CA9 preincubated for 15 mins by phenol red dye based stopped flow CO2 hydration assay
# T47D [2] = assay: Antiproliferative activity against human T47D cells assessed as cell growth inhibition at 10 uM incubated for 24 hrs by sulforhodamine B assay; format: functional; settings: read-out: GI
# EKVX = assay: Antiproliferative activity against human EKVX cells assessed as cell growth inhibition at 10 uM incubated for 24 hrs by sulforhodamine B assay; format: functional; settings: read-out: GI
# HCT-15 = assay: Antiproliferative activity against human HCT-15 cells assessed as cell growth inhibition at 10 uM incubated for 24 hrs by sulforhodamine B assay; format: functional; settings: read-out: GI
# MCF7 [3] = assay: Antiproliferative activity against human MCF7 cells assessed as cell growth inhibition at 10 uM incubated for 24 hrs by sulforhodamine B assay; format: functional; settings: read-out: GI
# RXF 393 = assay: Antiproliferative activity against human RXF 393 cells assessed as cell growth inhibition at 10 uM incubated for 24 hrs by sulforhodamine B assay; format: functional; settings: read-out: GI
# SN12C = assay: Antiproliferative activity against human SN12C cells assessed as cell growth inhibition at 10 uM incubated for 24 hrs by sulforhodamine B assay; format: functional; settings: read-out: GI
# UO-31 = assay: Antiproliferative activity against human UO-31 cells assessed as cell growth inhibition at 10 uM incubated for 24 hrs by sulforhodamine B assay; format: functional; settings: read-out: GI
# HCT-116 = assay: Antiproliferative activity against human HCT-116 cells assessed as cell growth inhibition at 10 uM incubated for 24 hrs by sulforhodamine B assay; format: functional; settings: read-out: GI
# UACC-62 = assay: Antiproliferative activity against human UACC-62 cells assessed as cell growth inhibition at 10 uM incubated for 24 hrs by sulforhodamine B assay; format: functional; settings: read-out: GI
# SK-MEL-2 = assay: Antiproliferative activity against human SK-MEL-2 cells assessed as cell growth inhibition at 10 uM incubated for 24 hrs by sulforhodamine B assay; format: functional; settings: read-out: GI
# CAKI-1 = assay: Antiproliferative activity against human CAKI-1 cells assessed as cell growth inhibition at 10 uM incubated for 24 hrs by sulforhodamine B assay; format: functional; settings: read-out: GI
# NCI-H522 = assay: Antiproliferative activity against human NCI-H522 cells assessed as cell growth inhibition at 10 uM incubated for 24 hrs by sulforhodamine B assay; format: functional; settings: read-out: GI
# HL-60 = assay: Antiproliferative activity against human HL-60 cells assessed as cell growth inhibition at 10 uM incubated for 24 hrs by sulforhodamine B assay; format: functional; settings: read-out: GI
# Carbonic anhydrase 2 = Carbonic anhydrase 2 (Homo sapiens, UniProt P00918); assay: Inhibition of human CA2 preincubated for 15 mins by phenol red dye based stopped flow CO2 hydration assay
# OVCAR-4 = assay: Antiproliferative activity against human OVCAR-4 cells assessed as cell growth inhibition at 10 uM incubated for 24 hrs by sulforhodamine B assay; format: functional; settings: read-out: GI
# PC-3 = assay: Antiproliferative activity against human PC-3 cells assessed as cell growth inhibition at 10 uM incubated for 24 hrs by sulforhodamine B assay; format: functional; settings: read-out: GI
# MDA-MB-468 = assay: Antiproliferative activity against human MDA-MB-468 cells assessed as cell growth inhibition at 10 uM incubated for 24 hrs by sulforhodamine B assay; format: functional; settings: read-out: GI
# SK-OV-3 = assay: Antiproliferative activity against human SK-OV-3 cells assessed as cell growth inhibition at 10 uM incubated for 24 hrs by sulforhodamine B assay; format: functional; settings: read-out: GI
# MDA-MB-231 [4] = assay: Antiproliferative activity against human MDA-MB-231 cells assessed as reduction in cell viability incubated for 24 hrs by sulforhodamine B assay; format: functional, cell-based; settings: MDA-MB-231, 24 h
# T47D [5] = assay: Antiproliferative activity against human T47D cells assessed as reduction in cell viability incubated for 24 hrs by sulforhodamine B assay; format: functional, cell-based
# 786-0 = assay: Antiproliferative activity against human 786-0 cells assessed as cell growth inhibition at 10 uM incubated for 24 hrs by sulforhodamine B assay; format: functional; settings: read-out: GI
# MCF7 [6] = assay: Antiproliferative activity against human MCF7 cells assessed as reduction in cell viability incubated for 24 hrs by sulforhodamine B assay; format: functional, cell-based; settings: MCF7, 24 h
# LOX IMVI = assay: Antiproliferative activity against human LOX IMVI cells assessed as cell growth inhibition at 10 uM incubated for 24 hrs by sulforhodamine B assay; format: functional; settings: read-out: GI
SMILES,inhibition of growth at 10 µM (ACHN),inhibition of growth at 10 µM (MDA-MB-231 [1]),inhibition of growth at 10 µM (NCI-H23),inhibition of growth at 10 µM (NCI-H226),pKi (Carbonic anhydrase 9),inhibition of growth at 10 µM (MCF7 [3]),inhibition of growth at 10 µM (RXF 393),inhibition of growth at 10 µM (UO-31),inhibition of growth at 10 µM (UACC-62),inhibition of growth at 10 µM (CAKI-1),inhibition of growth at 10 µM (NCI-H522),inhibition of growth at 10 µM (HL-60),inhibition of growth at 10 µM (MDA-MB-468),also measured
CC(C)c1nc(SCC(=O)c2ccc(Br)cc2)nc(Nc2ccc(S(N)(=O)=O)cc2)c1C#N,6.53%,9.41%,20.2%,21.1%,6.42,6.24%,22.2%,31.2%,24.3%,12.2%,10.7%,24.1%,15.3%,inhibition of growth at 10 µM (RPMI-8226): 12.3%; inhibition of growth at 10 µM (Malme-3M): 11.7%; inhibition of growth at 10 µM (K562): 9.23%; inhibition of growth at 10 µM (MOLT-4): 13.7%; inhibition of growth at 10 µM (SK-MEL-5): 5.21%; inhibition of growth at 10 µM (T47D [2]): 33%; inhibition of growth at 10 µM (EKVX): 10.7%; inhibition of growth at 10 µM (HCT-15): 7.17%; inhibition of growth at 10 µM (SN12C): 5.41%; inhibition of growth at 10 µM (HCT-116): 6.95%; inhibition of growth at 10 µM (SK-MEL-2): 9.02%; pKi (Carbonic anhydrase 2): < 4.70; inhibition of growth at 10 µM (OVCAR-4): 6.52%; inhibition of growth at 10 µM (PC-3): 12.5%
CC(C)c1nc(SCC(=O)c2ccccc2)nc(Nc2ccc(S(N)(=O)=O)cc2)c1C#N,7.34%,5.5%,13.1%,11.8%,7.02,11.4%,13.8%,36.3%,10.2%,8.76%,10.1%,5.93%,9.86%,inhibition of growth at 10 µM (SK-OV-3): 5.58%; pIC50 (MDA-MB-231 [4]): 4.68; pIC50 (T47D [5]): 4.33; inhibition of growth at 10 µM (786-0): 5.2%; pIC50 (MCF7 [6]): 4.32; inhibition of growth at 10 µM (LOX IMVI): 16.5%
